The subject of one assay is Arabidopsis seedlings. Kind of assay: Arabidopsis hypocotyl elongation assay. The assay is classed as in vivo. The conditions noted are these: 1.0 μM. As to the method: Sterilized Arabidopsis seeds were sown on half strength MS (with 0.5% sucrose+1% agar, 0.5 g L-1 MES, pH 5.7) plates supplemented with MPs or GR24 (at 1.0 μM). Plates were stored at 4° C. in darkness for 3 days. To initiate germination, plates were exposed to continuous white light for 24 h then transferred to continuous monochromatic red light (160 Lux, 22° C.) conditions for another 4 days. For hypocotyl length measurement, at least 30 seedlings were measured using the publically available ImageJ software (http://rsbweb.nih.gov/ij/) after taking digital photographs. Monochromatic red light source was applied as described previously (Wu and Yang, 2010). Light flow rates were measured using a Li250 quantum photometer (Li-Cor, Lincoln, NE, USA).

For the next assay, the target named is T1, OsD14 (Oryza sativa subsp. japonica, UniProt Q10QA5).
T1 construct: made in house; host or cells: E. coli BL21 (DE3)
T1 sequence (Q10QA5 1-318): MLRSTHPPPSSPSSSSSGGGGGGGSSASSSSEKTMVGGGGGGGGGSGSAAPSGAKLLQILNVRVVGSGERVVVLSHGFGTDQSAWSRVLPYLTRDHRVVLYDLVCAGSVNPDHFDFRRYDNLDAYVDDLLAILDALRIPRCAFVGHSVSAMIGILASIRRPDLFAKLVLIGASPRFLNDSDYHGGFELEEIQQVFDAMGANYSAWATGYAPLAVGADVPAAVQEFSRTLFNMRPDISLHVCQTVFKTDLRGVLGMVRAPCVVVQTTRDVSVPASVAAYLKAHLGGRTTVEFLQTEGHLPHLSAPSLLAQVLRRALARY
Kind of assay: In vitro hydrolysis assay with OsD14 (HPLC). The assay is classed as biochemical, rice. The following applies: 10 μM substrate, 37° C. The source says:
Striga hermonthica ShHTL7 cDNA, GenBank accession KR013127 was kindly provided by Prof. Tadao Asami (The University of Tokyo, Japan). Arabidopsis thaliana D14 (AtD14) cDNA, GenBank accession AY097402 was synthesized and cloned into pUC57 (GenScript). ShHTL7 and OsD14 cDNAs were amplified by RT-PCR using the primers shown in Table 2, digested with BamHI and XhoI, and ligated into BamHI/XhoI digested pGEX-6P-1 expression vector (GE Healthcare). Integrity of plasmids was confirmed by sequencing (KAUST Bioscience Core Lab). The plasmids were then transformed into E. coli BL21 (DE3) cells. The cells were grown in LB broth containing ampicillin ([…]), incubated at 37° C. until OD600 of 0.6 and induced with 0.1 mM isopropyl-β-D-thiogalactopyranoside (IPTG) at 16° C. for 16 h. […]
The hydrolysis of GR24 and MPs by ShHTL7/OsD14 was performed in a total volume of 0.5 ml of PBS buffer containing 10 μM of substrate. […] Hydrolysis of substrates was monitored by HPLC analysis using an Zorbax Eclipse Plus C18 column (3.5 μm, 2.1×150 mm), eluted by a gradient from 10% to 90% acetonitrile in water within 15 min and keeping final condition for 4 min. […] Eluted compounds were detected using a Diode Array Detector. Amounts of remaining substrates were determined by calculating corresponding peaks, in comparison to that of internal standard.

The test system of another assay is rice leaf segments. Description: Dark-induced leaf senescence of rice leaf segments. The assay is classed as in vivo, O. sativa, var. Shiokari. As to the method:
One week old rice (O. sativa, var. Shiokari) seedlings were established as mentioned above. Uniform seedlings were transferred to 50 ml tubes containing half strength Hoaglands nutrient solution for 7 days and grown in an incubator under white fluorescent light (130-180 μM m^−2 s^−1) with 16 h:8 h (L/D) at 28° C. for one week. Leaf segments of 2 cm were cut from middle part of third leaves of rice plants. Each segment was put in a well (in 24-well plates) containing 2 ml of 2.5 mM MES buffer with 0.05% Tween-20, and incubated at 30° C. in the dark for 7 days. After application of MPs, color change, chlorophyll content, ion leakage and gene expression were monitored daily for 7 days.

For the next assay, the system named is P. ramosa seeds. Kind of assay: P. ramosa seed germination bioassay. The assay is classed as in vivo. The conditions noted are these: 1.0 μM. The protocol: Parasitic weed seeds (S. hermonthica and P. ramosa) germination activity was recorded as described previously (Jamil et al., 2012). Six pre-conditioned seed discs were placed in a 90 mm petri-dish containing a filter paper ring wetted with 0.9 ml sterile MilliQ water. […] GR24 solutions with equal concentrations and sterile MilliQ water were included as a positive and negative control, respectively. After application, seeds were incubated at 30° C./25° C. in the dark for two days. Germination (seeds with radical emerging through seed coat) was scored under a binocular microscope, and germination rate (%) was calculated.

The subject of another assay is Striga. Description: Trial in Burkina Faso, wooden boxes with artificially infested soil and pearl millet host. The assay is classed as in vivo. The conditions noted are these: 1×1 m^2 boxes, artificially infested soil, pearl millet host. As to the method: Very recently, the activity of MP1 was also evaluated in a trial conducted in Burkina Faso, in which 1×1 m^2 wooden boxes were used which were filled with artificially infested soil and pearl millet as a host.

“Also recorded” adds a separate entry of the source.

Turning to `COC(=O)/C(=C/OC1C=C(C)C(=O)O1)c1ccc(Cl)cc1` (centres unmarked) [MP7], the “Inhibition of hypocotyl growth” value with Arabidopsis seedlings is “stronger inhibitory effect than GR24”.

For the compound `COC(=O)/C(=C/OC1C=C(C)C(=O)O1)c1ccccc1` (racemic) [MP3, (E)-methyl 3-(4-methyl-5-oxo-2,5-dihydrofuran-2-yloxy)-2-phenylacrylate], on OsD14, the “Hydrolysis rate by OsD14” value is given as “finally MP3”. In addition, in the assay with rice leaf segments (after 5 days of treatment), the “Transcript levels of Senescence Associated Genes Osl20 and Osl295” value is on record as “more pronounced in MP3 treated samples”. Also, the “Change in leaf color, time relative to control” value in the assay on rice leaf segments (dark, leaf segments) is “about two days earlier than the control”. Moreover, the “Change in leaf color, day observed” value with rice leaf segments (dark, leaf segments monitored 7 days) was “already on the third day after treatment”. In addition, the “Ion leakage compared to the control” value in the assay on rice leaf segments (first five days) is “did not detect a difference”; in the assay on rice leaf segments (sixth and seventh day), “striking increase”. In the assay with rice leaf segments (third day), the Chlorophyll content entry is given as “clear reduction”.

Regarding `COC(=O)/C(=C/OC1C=C(C)C(=O)O1)c1ccc([N+](=O)[O-])cc1` (racemic) [MP1, (E)-methyl 3-(4-methyl-5-oxo-2,5-dihydrofuran-2-yloxy)-2-(4-nitrophenyl)acrylate], the “Hydrolysis rate by OsD14” value at OsD14 is “highest hydrolysis rate”. Further, the “P. ramosa seed germination activity” value in the assay on P. ramosa seeds is “much higher activity; also recorded: quite similar to that of GR24”. The “Germination activity compared with GR24” value in the assay on Striga is listed as “significantly higher germination activity than GR24”.
